In data set [1] the test system is C. albicans. The experiment in a line: C. albicans colony forming units (candidacidal activity). It counts as cell-based. As to conditions: FIG. 2. As for the experimental part:
C. albicans (clinical isolate) was obtained from the collection of the Department of Microbiology, Ospedale Maggiore di Milano and maintained on Sabouraud's agar slants and periodically transferred to Sabouraud's agar plates and incubated for 48 hours at 28° C. To prepare a stationary growth phase yeast, a colony was taken from the agar plate and transferred into 30 ml Sabouraud-dextrose broth and incubated for 72 hours at 32° C. Cells were centrifuged and suspended in Hank's balanced salt solution (“HBSS”) to the desired concentration. Viability, determined by the exclusion of 0.01% methylene blue, remained >98%.
C. albicans (1×10^6/ml in HBSS) was incubated in the presence or absence or α-MSH(1-13) (SEQ ID NO: 3) or (11-13) (SEQ ID NO: 1) at concentrations in the range of 10^−15 M to 10^−6 M for 2 hours at 37° C. Cells were then washed in cold distilled water and diluted with HBSS to a concentration of 100 organisms/ml. One-ml aliquots were dispensed on blood agar plates and incubated for 48 hours at 37° C. Organism viability was estimated from the number of colonies formed.
In subsequent experiments using familiar procedures we compared activity of α-MSH(4-10) (SEQ ID NO: 10), (6-13) (SEQ ID NO: 2), (11-13) (SEQ ID NO: 1), ACTH(1-39) (SEQ ID NO: 9), (18-39) (SEQ ID NO: 11) and fluconazole, the latter an established antifungal agent. Melanocortin peptides and fluconazole were tested in concentrations of 10^−6 M to 10^−4 M. There were at least six replicates for each concentration of peptide. […]

The conditions of data set [2]: Lipton and Catania, Immunol. Today 1997; cited from earlier work.
Data set [3] relates to C. albicans. The experiment in a line: Horse serum-induced germ tube formation (germination) of C. albicans. It counts as cell-based. Particulars: 10^−6M, 60 minutes at 37° C. after horse serum induction. The protocol: C. albicans from stationary phase cultures were washed twice with distilled water and suspended in HBSS to a final concentration of 2×10^6/ml. Hyphal growth was induced by addition of 10% inactivated horse serum (GIBCO/BRL, Great Britain) to yeast incubated for 45 minutes at 37° C. with continuous shaking. Horse serum was removed by washing cells twice with HBSS and incubation was continued for 60 minutes at 37° C. in the presence of α-MSH(1-13) (SEQ ID NO: 3), (6-13) (SEQ ID NO: 2) or (11-13) (SEQ ID NO: 1) at a concentration of 10^−6M with continuous shaking. The percentage of filamentous cells was evaluated under a light microscope with the aid of hemocytometer. Experiments were run in triplicate and at least 200 cells were scored. Photomicrographs were taken with a MC100 camera attached to an Axioskop Zeiss microscope.

The subject of data set [4] is N9 clone of murine microglial cells. The experiment in a line: TNF-α, IL-6 and NO2− production by LPS+IFN-γ activated microglia. It counts as cell-based. The protocol: See Delgado, R., Carlin, A., Alraghi, L., Demitri, M., Meda, L., Galimberti, D., Pierluigi, B., Lipton, J. M., Catania, A., Melanocortin Peptides Inhibit Production of Proinflammatory Cytokines and Nitric Oxide by Activated Microglia, 63 J. of Leukocyte Biol. 740 (1998). […] The N9 clone of murine microglial cells was obtained by immortalization of embryonic brain cultures with the 3RV retrovirus carrying an activated v-myconcogene. N9 cells were cultured in T-75-cm^2 culture flasks (Coming, Cambridge, Mass.) and maintained at 37° C. in a humidified incubator under 5% CO2 atmosphere in RPMI 1640 supplemented with 2 mM L-glutamine, 50 U/mL penicillin G, 50 μg/mL streptomycin sulfate (GIBCO-BBL, Paisley, UK), and 10% heat-inactivated fetal bovine serum (FBS, Hyclone Lab, Inc., Logan, Utah) until experiments were performed. Cells were used between the first and the tenth passage.
Sub-confluent microglial cells were washed twice with phosphate-buffered saline (PBS) and incubated with trypsin 0.025% and ethylenediaminetetraacetate (EDTA) 0.02% without calcium and magnesium for 3 min. at 37° C. to detach the cells from the culture flask. Cells were then resuspended in medium and incubated in 24-well tissue-culture plates at a concentration of 2×10^5 cells/mL for 16 h in a humidified incubator (37° C., 5% CO2). Growth medium was removed and cell monolayers were stimulated with 10 ng/mL lipopolysaccharide (LPS, from Escherichia coli 055:B5, Sigma Chemical Co., St. Louis, Mo.) plus 1 U/ml, murine IFN-γ (Sigma). […] Although production of TNF-α and NO was reduced to even much lower concentrations of the peptides, concentrations in the micromolar range had the most profound and consistent inhibitory effects. […] Cell-free supernatants were harvested after 24 h incubation and assayed for TNF-α, IL-6 and NO2. Viability of cells was assessed by trypan blue exclusion for each experimental condition: it was consistently >98%. Dexamethasone (Sigma) and N-monomethyl-L-arginine (L-NMMA: 100 μM, Cayman Chemical, Ann Arbor, Mich.) were used as positive controls for TNF-α and NO inhibition, respectively. Tests were repeated in at least three independent experiments and assays were performed in triplicate.
TNF-α bioactivity was measured in supernatants of cell cultures by standard cytotoxicity assay using L929 cells and recombinant human TNF-α (Sigma) as standard. The detection limit of the bioassay was 20 pg/mL. IL-6 was measured using a commercial murine enzyme-linked immunosorbent assay (ELISA: RPN 2714, Amersham, Little Chalfont, UK).
NO is rapidly oxidized to nitrite in culture medium, and nitrite (NO2^−) concentration is an indicator of NO production. Cell-free culture supernatants were mixed with equal amounts of Griess reagent (1% sulfanilamide, 0.1% naphtylethylenediamide in 2.5% phosphoric acid) in wells of 96-well ELISA plates. Samples were incubated at room temperature for 10 min and absorbance was measured at 540 nm with the use of a microplate reader. Nitrite […] concentrations were calculated using a sodium nitrite standard curve.
Effects of melanocortin peptides on cytokine and NO production were evaluated by repeated measures analysis of variance followed by Dunnet's test for specific comparisons. Probability values less than 0.05 were considered significant.

Data set [5] shares this test system. The experiment in a line: Northern blot of TNF-α and iNOS mRNA in activated microglia. It counts as cell-based. Particulars: peptide prior to LPS and IFN-γ. The protocol:
Total cellular RNA was extracted from 10^6 adherent microglial cells plated in six-well tissue culture plates (Corning). Electrophoresis of RNA samples (10 μg/lane) was performed in 1% agarose/2.2 M formaldehyde gels and the gels subsequently blotted onto nylon filters by capillary action and baked for 2 h before prehybridization. The cDNA fragments encoding murine TNF-α and mouse macrophage iNOS were ^32P-labeled using the Ready-To-Go DNA Labeling Kit (Pharmacia, Uppsala, Sweden) before hybridization of nylon filters and autoradiography. Blots were subsequently rehybridized with human glyceraldehyde-3-phosphate dehydrogenase (G-3-PDH) cDNA probe as an internal control (Clontech Laboratories, Inc., Palo Alto, Calif.).

[6] abbreviates: microglia stimulated with LPS+IFN-γ for 24 hr, micromolar concentrations.

“α-MSH(4-10): core α-MSH sequence (4-10) [reference compound]”: the “inhibition of CFU” value with C. albicans [1] (10^−4M peptide as printed) is reported as “approximately 50%”. Also, the toxicity entry in data set [2] was “very low toxicity”.

As for “HFRWGKPV (Ac-HFRWGKPV-NH2) [α-MSH(6-13), octapeptide fragment of α-MSH]”, in the data set on C. albicans [1] (10^−4M melanocortin peptides), the “relative potency in reducing C. albicans viability” value was “most effective”. Further, the “reduction in the number of filamentous cells / inhibition of germ tube formation” value with C. albicans [3] is “approximately 50%”.

“ACTH(1-24): melanocortin peptide ACTH(1-24) (Sigma) (SYSMEHFRWGKPVGKKRRPVKVYP; Designed polypeptide with anti-inflammatory, anti-microbial, anti-fungal, and anti-viral properties.) [reference compound]”: the “concentration most effective at inhibiting cytokine formation” value in data set [4] (LPS+IFN-γ stimulated microglia, 1-100 μM tested) fell in the range of 10 to 25 µM. In addition, in data set [4] (setting [6]), the “reduction of production of IL-6” value is on record as 65%, the “reduction of production of NO2^−” value came out at 41% and the “reduction of production of TNF-α” value is 38%. Also, in data set [5], the “transcription levels (mRNA) for TNF-α and iNOS” value is “inhibition of mRNA transcription”.
